The results in this text go back to ChEMBL document CHEMBL3137667, “[Drug-induced liver injury; fourteenth updated edition of the bibliographic database of liver injuries and related drugs]” (Gastroenterol Clin Biol, 2004).

Data set [1] in a line: Times to onset, minimal and maximal, observed in the indexed observations. [column 'DELAI' in source]. To be noted: human.
The conditions of data set [2]: human.
The conditions of data set [3]: human. The source holds these as a separate data set.
For data set [4] the following is noted: human. The source holds these as a separate data set.
For data set [5] the following is noted: human, serum.
The conditions of data set [6]: human. The source holds these as a separate data set.
The conditions of data set [7]: human. This is another data set of the same source.
For data set [8] the following is noted: human. The source holds these as a separate data set.
The conditions of data set [9]: human. The source holds these as a separate data set.
The conditions of data set [10]: human. The source holds these as a separate data set.
For data set [11] the following is noted: human. This is another data set of the same source.
The conditions of data set [12]: human, serum. The source holds these as a separate data set.
For data set [13] the following is noted: human, serum, 4383 h.
Data set [14] can be described thus: Highest frequency of moderate liver toxicity observed during clinical trials, expressed as a percentage. [column '% BIOL' in source]. To be noted: human.
Data set [15] can be described thus: Highest frequency of acute liver toxicity observed during clinical trials, expressed as a percentage. [column '% AIGUE' in source]. Particulars: human.
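Throughout, for Hepatotoxicity (association with vascular disease): count of indexed literature references reporting vascular liver injury in humans, e.g. peliosis hepatitis, hepatic veno-occlusive disease or Budd-Chiari syndrome.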
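Throughout, for Hepatotoxicity (benign tumour): value is a count of indexed literature references citing a benign tumour confirmed by histopathology.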
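Throughout, for Hepatotoxicity (choleostasis): human cholestatic liver injury, shown by histopathology or by peak ALT or AST elevation over alkaline phosphatase ratio below 2, value counts indexed literature reports.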
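Throughout, for Hepatotoxicity (chronic liver disease): chronic liver injury confirmed by histopathology or persistently raised serum aminotransferase activity beyond 6 months, value given as the count of indexed literature references.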
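Throughout, for Hepatotoxicity (cirrhosis): value is a count of indexed literature references reporting cirrhosis confirmed by histopathology.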
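Throughout, for Hepatotoxicity (cytolytic): human cytolytic liver injury, shown by histopathology or by a ratio above 5 of peak ALT or AST elevation to alkaline phosphatase elevation, value counts indexed references.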
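Throughout, for Hepatotoxicity (granulomatous hepatitis): value is a count of indexed literature references reporting granulomatous liver disease confirmed by histopathology.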
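Throughout, for Hepatotoxicity (malignant tumour): malignant tumour confirmed by histopathology, value gives the count of indexed literature references reporting it.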
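Throughout, for Hepatotoxicity (severe hepatitis): human clinical data: severe hepatitis, meaning potentially life-threatening liver failure or clinically observed cases, the value counts how many indexed literature references report it.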
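Throughout, for Hepatotoxicity (steatosis): steatosis confirmed by histopathology, value is the count of indexed references.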

For `Nc1ccn([C@H]2CC[C@@H](CO)O2)c(=O)n1` [ZALCITABINE], the “Hepatotoxicity (time to onset)” value in [1] is given as 3 weeks - 10 months. Also, the “Hepatotoxicity (malignant tumour)” value in data set [2] is listed as 0. In addition, the “Hepatotoxicity (cirrhosis)” value in [3] was 0. The “Hepatotoxicity (choleostasis)” value in data set [4] (Liver) came out at 0. In addition, the “Hepatotoxicity (moderate)” value in data set [5] turned out to be 5; in data set [14] (Liver) it was 14.9%. In [6], the “Hepatotoxicity (steatosis)” value worked out at 2. The “Hepatotoxicity (cytolytic)” value in [7] (Liver) came out at 3. Also, in data set [8], the “Hepatotoxicity (benign tumour)” value amounted to 0. In data set [9] (Liver), the “Hepatotoxicity (granulomatous hepatitis)” value came to 0. Also, in data set [10], the “Hepatotoxicity (association with vascular disease)” value stood at 0. Also, in data set [11] (Liver), the “Hepatotoxicity (severe hepatitis)” value is 0. Moreover, the entries for the “Hepatotoxicity (acute)” value in [12] and in data set [15] (Liver) were 4 and 8.5%, respectively. Moreover, the “Hepatotoxicity (chronic liver disease)” value in data set [13] is on record as 0.

For `Cc1cc(C(=O)NNCc2ccccc2)no1` [ISOCARBOXAZID], the “Hepatotoxicity (time to onset)” value in [1] came to 1 month - 4 months. Further, in [2], the “Hepatotoxicity (malignant tumour)” value is on record as 0. Further, the “Hepatotoxicity (cirrhosis)” value in [3] is 0. Also, the “Hepatotoxicity (choleostasis)” value in data set [4] came to 2. The “Hepatotoxicity (moderate)” value turned out to be 1 in [5] and 0% in data set [14]. Besides, the “Hepatotoxicity (steatosis)” value in [6] came out at 0. The “Hepatotoxicity (cytolytic)” value in data set [7] is 4. The “Hepatotoxicity (benign tumour)” value in [8] is reported as 0. Also, the “Hepatotoxicity (granulomatous hepatitis)” value in data set [9] is given as 0. Moreover, the “Hepatotoxicity (association with vascular disease)” value in [10] stood at 0. For the same compound, the “Hepatotoxicity (severe hepatitis)” value in data set [11] came to 1. For the same compound, the “Hepatotoxicity (acute)” value in data set [12] is 4; in data set [15], 0%. In addition, the “Hepatotoxicity (chronic liver disease)” value in data set [13] was found to be 0.

Regarding MEGLUMINE ANTIMONATE, the “Hepatotoxicity (time to onset)” value in data set [1] is recorded as 6 hours - 6 days. Also, the “Hepatotoxicity (malignant tumour)” value in [2] is recorded as 0. In addition, the “Hepatotoxicity (cirrhosis)” value in data set [3] is 0. Besides, in [4], the “Hepatotoxicity (choleostasis)” value is reported as 0. Further, the entries for the “Hepatotoxicity (moderate)” value in data set [5] and in [14] were 3 and 6%, respectively. Further, the “Hepatotoxicity (steatosis)” value in [6] was 0. The “Hepatotoxicity (cytolytic)” value in data set [7] was found to be 0. For the same compound, the “Hepatotoxicity (benign tumour)” value in data set [8] is 0. Besides, the “Hepatotoxicity (granulomatous hepatitis)” value in [9] is given as 0. Besides, the “Hepatotoxicity (association with vascular disease)” value in data set [10] came to 0. The “Hepatotoxicity (severe hepatitis)” value in data set [11] amounted to 0. The results for the “Hepatotoxicity (acute)” value in data set [12] and in data set [15] were 1 and 0%, respectively. For the same compound, the “Hepatotoxicity (chronic liver disease)” value in [13] was 0.

As for `CCCCCCCCCCC[C@@H](C[C@@H]1OC(=O)[C@H]1CCCCCC)OC(=O)[C@H](CC(C)C)NC=O` [ORLISTAT], the “Hepatotoxicity (time to onset)” value in [1] was 3 weeks - 1.5 months. Moreover, in data set [2], the “Hepatotoxicity (malignant tumour)” value was 0. For the same compound, the “Hepatotoxicity (cirrhosis)” value in data set [3] amounted to 0. In addition, the “Hepatotoxicity (choleostasis)” value in data set [4] was determined as 1. Further, the “Hepatotoxicity (moderate)” value in data set [5] is 0; in data set [14], 0%. The “Hepatotoxicity (steatosis)” value in data set [6] worked out at 0. In addition, in data set [7], the “Hepatotoxicity (cytolytic)” value came out at 1. For the same compound, the “Hepatotoxicity (benign tumour)” value in data set [8] worked out at 0. Moreover, the “Hepatotoxicity (granulomatous hepatitis)” value in data set [9] amounted to 0. Moreover, the “Hepatotoxicity (association with vascular disease)” value in [10] is 0. Also, the “Hepatotoxicity (severe hepatitis)” value in data set [11] is listed as 1. Also, the “Hepatotoxicity (acute)” value is 2 in [12] and 0% in data set [15]. Besides, the “Hepatotoxicity (chronic liver disease)” value in data set [13] turned out to be 0.

As for `Cc1cccc(N2CC(CO)OC2=O)c1` (stereo not given) [TOLOXATONE], in data set [1], the “Hepatotoxicity (time to onset)” value is given as 15 days - 10 months. In [2], the “Hepatotoxicity (malignant tumour)” value is reported as 0. Besides, the “Hepatotoxicity (cirrhosis)” value in data set [3] is on record as 0. The “Hepatotoxicity (choleostasis)” value in data set [4] stood at 1. For the same compound, the results for the “Hepatotoxicity (moderate)” value in data set [5] and in data set [14] were 0 and 0%, respectively. In data set [6], the “Hepatotoxicity (steatosis)” value is 0. Moreover, the “Hepatotoxicity (cytolytic)” value in data set [7] was 2. For the same compound, the “Hepatotoxicity (benign tumour)” value in [8] is given as 0. Also, in [9], the “Hepatotoxicity (granulomatous hepatitis)” value came to 0. Also, in [10], the “Hepatotoxicity (association with vascular disease)” value was 0. For the same compound, the “Hepatotoxicity (severe hepatitis)” value in data set [11] is on record as 1. The entries for the “Hepatotoxicity (acute)” value in data set [12] and in data set [15] were 2 and 0%, respectively. The “Hepatotoxicity (chronic liver disease)” value in data set [13] is recorded as 0.

`Cc1ccc(C(=O)c2ccc(CC(=O)O)n2C)cc1` [TOLMETIN]: the “Hepatotoxicity (time to onset)” value in [1] stood at 3 weeks. For the same compound, in data set [2], the “Hepatotoxicity (malignant tumour)” value amounted to 0. For the same compound, the “Hepatotoxicity (cirrhosis)” value in data set [3] came to 0. In addition, in data set [4], the “Hepatotoxicity (choleostasis)” value came out at 1. Moreover, the “Hepatotoxicity (moderate)” value stood at 3 in [5] and 14.6% in data set [14] (Liver). Besides, the “Hepatotoxicity (steatosis)” value in [6] was 0. In [7], the “Hepatotoxicity (cytolytic)” value was determined as 0. For the same compound, the “Hepatotoxicity (benign tumour)” value in [8] is 0. Besides, the “Hepatotoxicity (granulomatous hepatitis)” value in data set [9] worked out at 0. The “Hepatotoxicity (association with vascular disease)” value in data set [10] amounted to 0. Further, the “Hepatotoxicity (severe hepatitis)” value in [11] (Liver) is 0. The “Hepatotoxicity (acute)” value in data set [12] is reported as 1; in data set [15] (Liver), 0%. The “Hepatotoxicity (chronic liver disease)” value in data set [13] amounted to 0.

For the compound `CC(C)COCC(CN(Cc1ccccc1)c1ccccc1)N1CCCC1` (stereo not given) [BEPRIDIL], the “Hepatotoxicity (time to onset)” value in [1] is reported as 4 days - 20 days. Moreover, the “Hepatotoxicity (malignant tumour)” value in data set [2] is 0. Besides, in data set [3], the “Hepatotoxicity (cirrhosis)” value is 0. Further, in data set [4], the “Hepatotoxicity (choleostasis)” value came out at 0. Also, the “Hepatotoxicity (moderate)” value in data set [5] came to 3; in data set [14], 2.8%. Moreover, the “Hepatotoxicity (steatosis)” value in data set [6] is reported as 1. Also, the “Hepatotoxicity (cytolytic)” value in data set [7] is recorded as 1. In data set [8], the “Hepatotoxicity (benign tumour)” value came to 0. The “Hepatotoxicity (granulomatous hepatitis)” value in data set [9] is recorded as 0. Also, the “Hepatotoxicity (association with vascular disease)” value in [10] was found to be 0. In addition, in data set [11], the “Hepatotoxicity (severe hepatitis)” value is listed as 0. Also, the “Hepatotoxicity (acute)” value in data set [12] came out at 1; in data set [15] it was 0%. For the same compound, the “Hepatotoxicity (chronic liver disease)” value in data set [13] was 0.

On to `O=[N+]([O-])c1cc(Cl)cc(-c2cc(Cl)cc([N+](=O)[O-])c2O)c1O` [NICLOFOLAN], for which, in data set [1], the “Hepatotoxicity (time to onset)” value is given as 1 week. The “Hepatotoxicity (malignant tumour)” value in [2] came to 0. The “Hepatotoxicity (cirrhosis)” value in [3] is 0. Moreover, the “Hepatotoxicity (choleostasis)” value in data set [4] was determined as 1. The “Hepatotoxicity (moderate)” value in data set [5] is reported as 0; in data set [14], 0%. The “Hepatotoxicity (steatosis)” value in data set [6] is recorded as 0. In addition, in [7], the “Hepatotoxicity (cytolytic)” value came to 0. Besides, in [8], the “Hepatotoxicity (benign tumour)” value is reported as 0. Besides, the “Hepatotoxicity (granulomatous hepatitis)” value in data set [9] amounted to 0. Also, in [10], the “Hepatotoxicity (association with vascular disease)” value was 0. In [11], the “Hepatotoxicity (severe hepatitis)” value stood at 0. The “Hepatotoxicity (acute)” value amounted to 1 in data set [12] and 0% in data set [15]. Further, the “Hepatotoxicity (chronic liver disease)” value in data set [13] was determined as 0.

As to `O=C(O)Cc1sc(-c2ccccc2)nc1-c1ccc(Cl)cc1` [FENTIAZAC], the “Hepatotoxicity (time to onset)” value in [1] is 4 months - 5 months. The “Hepatotoxicity (malignant tumour)” value in [2] is given as 0. Further, the “Hepatotoxicity (cirrhosis)” value in [3] is listed as 0. Moreover, in data set [4], the “Hepatotoxicity (choleostasis)” value is listed as 0. Also, the “Hepatotoxicity (moderate)” value in [5] is on record as 3; in [14], 35%. Besides, the “Hepatotoxicity (steatosis)” value in data set [6] is 0. Besides, in data set [7], the “Hepatotoxicity (cytolytic)” value came out at 1. For the same compound, the “Hepatotoxicity (benign tumour)” value in data set [8] was determined as 0. In addition, the “Hepatotoxicity (granulomatous hepatitis)” value in [9] is 0. Further, the “Hepatotoxicity (association with vascular disease)” value in [10] was found to be 0. The “Hepatotoxicity (severe hepatitis)” value in data set [11] was determined as 0. The “Hepatotoxicity (acute)” value in data set [12] worked out at 2; in data set [15] it was 6.1%. In data set [13], the “Hepatotoxicity (chronic liver disease)” value was found to be 0.

Consider `COCCCOc1ccnc(C[S+]([O-])c2nc3ccccc3[nH]2)c1C` (stereo not given) [RABEPRAZOLE], for which the “Hepatotoxicity (time to onset)” value in data set [1] worked out at 4 weeks. Moreover, the “Hepatotoxicity (malignant tumour)” value in data set [2] is on record as 0. Besides, the “Hepatotoxicity (cirrhosis)” value in data set [3] stood at 0. The “Hepatotoxicity (choleostasis)” value in [4] is given as 0. In addition, the “Hepatotoxicity (moderate)” value in data set [5] is 0; in data set [14], 0%. Also, the “Hepatotoxicity (steatosis)” value in data set [6] is 0. In data set [7], the “Hepatotoxicity (cytolytic)” value came to 1. Further, the “Hepatotoxicity (benign tumour)” value in data set [8] came to 0. In [9], the “Hepatotoxicity (granulomatous hepatitis)” value is on record as 0. The “Hepatotoxicity (association with vascular disease)” value in [10] is on record as 0. For the same compound, the “Hepatotoxicity (severe hepatitis)” value in data set [11] is listed as 1. Also, the “Hepatotoxicity (acute)” value in data set [12] is given as 1; in data set [15] it was 0%. Further, the “Hepatotoxicity (chronic liver disease)” value in data set [13] was 0.

Consider `C=CC1=C(C(=O)O)N2C(=O)[C@@H](NC(=O)/C(=N\O)c3csc(N)n3)[C@H]2SC1`, for which the “Hepatotoxicity (time to onset)” value in [1] is reported as 2 days. For the same compound, the “Hepatotoxicity (malignant tumour)” value in [2] was 0. Further, the “Hepatotoxicity (cirrhosis)” value in data set [3] is on record as 0. For the same compound, in data set [4], the “Hepatotoxicity (choleostasis)” value is listed as 0. Moreover, the results for the “Hepatotoxicity (moderate)” value in data set [5] and in [14] were 43 and 28.6%, respectively. Also, in data set [6], the “Hepatotoxicity (steatosis)” value is listed as 0. The “Hepatotoxicity (cytolytic)” value in data set [7] came out at 0. For the same compound, in data set [8], the “Hepatotoxicity (benign tumour)” value came to 0. In [9], the “Hepatotoxicity (granulomatous hepatitis)” value is 1. For the same compound, the “Hepatotoxicity (association with vascular disease)” value in data set [10] is reported as 0. Further, in data set [11], the “Hepatotoxicity (severe hepatitis)” value is listed as 0. Also, the “Hepatotoxicity (acute)” value is 1 in data set [12] and 0% in data set [15]. Besides, the “Hepatotoxicity (chronic liver disease)” value in [13] is given as 0.
